Structures are written as SMILES.

In this assay the test system is MLLr leukemia cell line MV4-11. In words: Cell proliferation assay MV4;11 (CellTiter-Glo, 72 hours). It counts as cell-based. Conditions: Homo sapiens; MV4-11 cells, 72 hours, CellTiter-Glo; read-out: MV4; 11 IC50. As to the method: Compounds were evaluated for its capacity to inhibit the proliferation of the MLLr leukemia cell line MV4-11 that harbors an MLL1-AF4 fusion protein. MV4-11 cells were cultured for 72 hours with limiting dilutions of compounds and viability was measured using CellTiter-Glo.
Compounds were dissolved to obtain as 10 mM solution in DMSO. The stock was diluted 1:5 to the top concentration of 2 mM in 100% DMSO. For IC50 determination, serial 1:3.16 dilutions were prepared in 100% DMSO by diluting 20 μL into 43.5 μL of DMSO for 8 concentrations. Each prepared DMSO solution were further diluted 1:500 in the cell culture media to obtain the 2× dosing solutions. The final concentrations of tested compounds in the cell culture media ranged from 0.632 nM to 2000 nM.
MV4-11 cells were cultured in IMDM with 10% FBS and 1× Penicillin-Streptomycin at 5% CO2 and 37° C. A cell suspension was prepared containing 15,000 cells/ml in the culture medium and 100 μL of this suspension was added per well to a 96-well cell culture plate. Then, 100 μL of 2× dosing media containing test compounds were added bringing the total volume to 200 μL. These cells were cultured for 72 hours at 37° C. and 5% CO2 in a humidified incubator.
After 72 hours, the cultured cells were mixed and 100 μL was transferred to a 96-well black plate. Cell Titer Glo (100 μl) was then added to this plate. The plate was mixed with shaking for 15 mins at RT, the luminescence was then measured using Tecan Spark 20M spectrophotometer. Cell Viability (%) was determined by RLU of test/RLU average vehicle control*100 and % max inhibition was determined by 100−(% cell viability remaining at the top concentration of compound).
On the technique in general: ATP-based viability assays read luminescence as a measure of living cells.
For `CC(C)N(CC(F)F)C(=O)c1cc(F)ccc1Oc1cncnc1N1CC2(CCN(C[C@@H]3CC[C@@H](NS(=O)(=O)C4CCOCC4)CO3)CC2)C1` [Example 98, N-(2,2-Difluoroethyl)-5-fluoro-N-isopropyl-2-((4-(7-(((2S,5R)-5-((tetrahydro-2H-pyran)-4-sulfonamido)tetrahydro-2H-pyran-2-yl)methyl)-2,7-diazaspiro[3.5]nonan-2-yl)pyrimidin-5-yl)oxy)benzamide], the IC50 is less than 100 nM.
With `CCn1cc(S(=O)(=O)N[C@@H]2CC[C@@H](CN3CCC4(CC3)CN(c3ncncc3Oc3ccc(F)cc3C(=O)N(CC(F)F)C(C)C)C4)OC2)cn1` [Example 106, N-(2,2-Difluoroethyl)-2-((4-(7-(((2S,5R)-5-((1-ethyl-1H-pyrazole)-4-sulfonamido)tetrahydro-2H-pyran-2-yl)methyl)-2,7-diazaspiro[3.5]nonan-2-yl)pyrimidin-5-yl)oxy)-5-fluoro-N-isopropylbenzamide], the IC50 was less than 100 nM.
For the molecule `CC(C)N(C(=O)c1cc(F)ccc1Oc1cncnc1N1CC2(CCN(C[C@@H]3CC[C@@H](NS(C)(=O)=O)CO3)CC2)C1)C1CC(F)(F)C1` [Example 112, N-(3,3-Difluorocyclobutyl)-5-fluoro-N-isopropyl-2-((4-(7-(((2S,5R)-5-(methylsulfonamido)tetrahydro-2H-pyran-2-yl)methyl)-2,7-diazaspiro[3.5]nonan-2-2-yl)pyrimidin-5-yl)oxy)benzamide], the IC50 was less than 100 nM.
For `Cc1nc(S(=O)(=O)N[C@@H]2CC[C@@H](CN3CCC4(CC3)CN(c3ncncc3Oc3ccc(F)cc3C(=O)N(C(C)C)[C@@H]3CCOC3)C4)OC2)cs1` [Example 133, 5-Fluoro-N-isopropyl-2-((4-(7-(((2S,5R)-5-((2-methylthiazole)-4-sulfonamido)tetrahydro-2H-pyran-2-yl)methyl)-2,7-diazaspiro[3.5]nonan-2-yl)pyrimidin-5-yl)oxy)-N-((R)-tetrahydrofuran-3-yl)benzamide], the IC50 is less than 100 nM.
`Cc1nc(S(=O)(=O)N[C@@H]2CC[C@@H](CN3CCC4(CC3)CN(c3ncncc3Oc3ccc(F)cc3C(=O)N(C(C)C)[C@H]3CCOC3)C4)OC2)cs1` [Example 135, 5-Fluoro-N-isopropyl-2-((4-(7-(((2S,5R)-5-((2-methylthiazole)-4-sulfonamido)tetrahydro-21H-pyran-2-yl)methyl)-2,7-diazaspiro[3.5]nonan-2-yl)pyrimidin-5-yl)oxy)-N-((S)-tetrahydrofuran-3-yl)benzamide]: the IC50 is less than 100 nM.
With `CC(C)N(C)C(=O)c1cc(F)ccc1Oc1cncnc1N1CC2(CCN(C[C@@H]3CC[C@@H](NS(=O)(=O)c4cnn(C)c4)CO3)CC2)C1` [Example 139, 5-Fluoro-N-isopropyl-N-methyl-2-((4-(7-(((2S,5R)-5-((1-methyl-1H-pyrazole)-4-sulfonamido)tetrahydro-2H-pyran-2-yl)methyl)-2,7-diazaspiro[3.5]nonan-2-yl)pyrimidin-5-yl)oxy)benzamide], the IC50 was 100 to 1000 nM.
As to `CC(C)N(CC(F)F)C(=O)c1cc(F)ccc1Oc1nncnc1N1CC2(CCN(C[C@@H]3CC[C@@H](NS(=O)(=O)c4cnn(C)c4)CO3)CC2)C1` [Example 187, N-(2,2-Difluoroethyl)-5-fluoro-N-isopropyl-2-((5-(7-(((2S,5R)-5-((1-methyl-1H-pyrazole)-4-sulfonamido)tetrahydro-2H-pyran-2-yl)methyl)-2,7-diazaspiro[3.5]nonan-2-yl)-1,2,4-triazin-6-yl)oxy)benzamide], the IC50 was less than 100 nM.
As for `CC(C)N(CC(F)(F)F)C(=O)c1cc(F)ccc1Oc1nncnc1N1CC2(CCN(C[C@@H]3CC[C@@H](NS(=O)(=O)c4cnn(C)c4)CO3)CC2)C1` [Example 192, 5-Fluoro-N-isopropyl-2-((5-(7-(((2R,5S)-5-((1-methyl-1H-pyrazole)-4-sulfonamido)tetrahydro-2H-pyran-2-yl)methyl)-2,7-diazaspiro[3.5]nonan-2-yl)-1,2,4-triazin-6-yl)oxy)-N-(2,2,2-trifluoroethyl)benzamide], the IC50 is less than 100 nM.

These data come from US20240400564A1 (Syndax Pharmaceuticals, Inc, priority 2021, published 2024).
